# Data from patent US20260183295A1, “METHODS AND COMPOSITIONS FOR TREATING CANCER” (Onconova Therapeutics, Inc., priority 2022, published 2026).
# Columns and labels:
# Assay in all cases: CETSA-MS, MDA-MB-231 intact cells
# Format in all cases: cell-based
# Settings in all cases: 2 μM and 20 μM
# [1] = molecular target: T1, ANP32B (Homo sapiens, UniProt Q92688)
# T1 construct: endogenous in cells; host or cells: MDA-MB-231
# Method: (§1) TNBC MDA-MB-231 cells were grown at 37° C. in 5% CO2 and suspended in warm media and split into 4 equal volumes. […] Cells were incubated and then pelleted. Following pelleting, the cells were washed, resuspended, and heated in a thermal gradient. Following heating, the samples were flash frozen and lysed in lysis buffer, agitated by vortex, and sonicated prior to centrifugation. The supernatant was collected and denaturation buffer added. Cold acetone was then added to the cell samples, and protein collected by centrifugation. Pellets were then washed twice with cold acetone and the washed pellets prior to labeling.
# (§2) The intact cell protein samples and lysate protein samples were then digested and labeled for mass spectrometry analysis according to the manufacturer's recommended protocols. Digested and labeled protein samples were analyzed by mass spectrometry proteomic analysis and the resulting protein targets were analyzed and plotted.
# [2] = molecular target: T2, PUS7L (Homo sapiens, UniProt Q9H0K6)
# T2 construct: endogenous in cells; host or cells: MDA-MB-231
# Method: as §1, §2
# [3] = molecular target: T3, HNRNPA0 (Homo sapiens, UniProt Q13151)
# T3 construct: 148 targets unique to Compound 1 in MDA-MB-231 intact cells; endogenous in cells; host or cells: MDA-MB-231
# Method: as §1, §2
# [4] = molecular target: T4, CLUH (Homo sapiens, UniProt O75153)
# T4 construct: endogenous in cells; host or cells: MDA-MB-231
# Method: as §1, §2
# [5] = molecular target: T5, HSPG2 (Homo sapiens, UniProt P98160)
# T5 construct: endogenous in cells; host or cells: MDA-MB-231
# Method: as §1, §2
# [6] = molecular target: T6, AP2A1 (Homo sapiens, UniProt O95782)
# T6 construct: endogenous in cells; host or cells: MDA-MB-231
# Method: as §1, §2
# [7] = molecular target: T7, COL2A1 (Homo sapiens, UniProt P02458)
# T7 construct: endogenous in cells; host or cells: MDA-MB-231
# Method: as §1, §2
# [8] = molecular target: T8, SYNE2 (Homo sapiens, UniProt Q8WXH0)
# T8 construct: endogenous in cells; host or cells: MDA-MB-231
# Method: as §1, §2
# [9] = molecular target: T9, IGFBP7 (Homo sapiens, UniProt Q16270)
# T9 construct: endogenous in cells; host or cells: MDA-MB-231
# Method: as §1, §2
# [10] = molecular target: T10, MICALL2 (Homo sapiens, UniProt Q8IY33)
# T10 construct: endogenous in cells; host or cells: MDA-MB-231
# Method: as §1, §2
# [11] = molecular target: T11, SNX6 (Homo sapiens, UniProt Q9UNH7)
# T11 construct: endogenous in cells; host or cells: MDA-MB-231
# Method: as §1, §2
# [12] = molecular target: T12, DNAJC13 (Homo sapiens, UniProt O75165)
# T12 construct: 148 targets unique to Compound 1 in MDA-MB-231 intact cells; endogenous in cells; host or cells: MDA-MB-231
# Method: as §1, §2
# [13] = molecular target: T13, INCENP (Homo sapiens, UniProt Q9NQS7)
# T13 construct: endogenous in cells; host or cells: MDA-MB-231
# Method: as §1, §2
# [14] = molecular target: T14, AVEN (Homo sapiens, UniProt Q9NQS1)
# T14 construct: endogenous in cells; host or cells: MDA-MB-231
# Method: as §1, §2
# [15] = molecular target: T15, CDK17 (Homo sapiens, UniProt Q00537)
# T15 construct: endogenous in cells; host or cells: MDA-MB-231
# Method: as §1, §2
# [16] = molecular target: T16, PIP4K2B (Homo sapiens, UniProt P78356)
# T16 construct: endogenous in cells; host or cells: MDA-MB-231
# Method: as §1, §2
# [17] = molecular target: T17, LAMTOR2 (Homo sapiens, UniProt Q9Y2Q5)
# T17 construct: endogenous in cells; host or cells: MDA-MB-231
# Method: as §1, §2
# [18] = molecular target: T18, LTBP2 (Homo sapiens, UniProt Q14767)
# T18 construct: endogenous in cells; host or cells: MDA-MB-231
# Method: as §1, §2
# [19] = molecular target: T19, HNRNPR (Homo sapiens, UniProt O43390)
# T19 construct: endogenous in cells; host or cells: MDA-MB-231
# Method: as §1, §2
# [20] = molecular target: T20, CDKN1A (Homo sapiens, UniProt P38936)
# T20 construct: endogenous in cells; host or cells: MDA-MB-231
# Method: as §1, §2
# [21] = test system: FBRS
# Method: as §1, §2
# [22] = molecular target: T21, RSF1 (Homo sapiens, UniProt Q96T23)
# T21 construct: endogenous in cells; host or cells: MDA-MB-231
# Method: as §1, §2
# [23] = molecular target: T22, SNX30 (Homo sapiens, UniProt Q5VWJ9)
# T22 construct: endogenous in cells; host or cells: MDA-MB-231
# Method: as §1, §2
# [24] = molecular target: T23, MARK2 (Homo sapiens, UniProt Q7KZI7)
# T23 construct: endogenous in cells; host or cells: MDA-MB-231
# Method: as §1, §2
# [25] = molecular target: T24, CRAT (Homo sapiens, UniProt P43155)
# T24 construct: 148 targets unique to Compound 1 in MDA-MB-231 intact cells; endogenous in cells; host or cells: MDA-MB-231
# Method: as §1, §2
# [26] = molecular target: T25, ARRB2 (Homo sapiens, UniProt P32121)
# T25 construct: endogenous in cells; host or cells: MDA-MB-231
# Method: as §1, §2
# [27] = molecular target: T26, DECR1 (Homo sapiens, UniProt Q16698)
# T26 construct: endogenous in cells; host or cells: MDA-MB-231
# Method: as §1, §2
# [28] = molecular target: T27, HNRNPC (Homo sapiens, UniProt P07910)
# T27 construct: 148 targets unique to Compound 1 in MDA-MB-231 intact cells; endogenous in cells; host or cells: MDA-MB-231
# Method: as §1, §2
# [29] = molecular target: T28, AGRN (Homo sapiens, UniProt O00468)
# T28 construct: endogenous in cells; host or cells: MDA-MB-231
# Method: as §1, §2
# [30] = molecular target: T29, STK3 (Homo sapiens, UniProt Q13188)
# T29 construct: endogenous in cells; host or cells: MDA-MB-231
# Method: as §1, §2
# [31] = molecular target: T30, STX5 (Homo sapiens, UniProt Q13190)
# T30 construct: endogenous in cells; host or cells: MDA-MB-231
# Method: as §1, §2
# [32] = molecular target: T31, MTG1 (Homo sapiens, UniProt Q9BT17)
# T31 construct: endogenous in cells; host or cells: MDA-MB-231
# Method: as §1, §2
# [33] = molecular target: T32, LYPLA2 (Homo sapiens, UniProt O95372)
# T32 construct: endogenous in cells; host or cells: MDA-MB-231
# Method: as §1, §2
# [34] = molecular target: T33, TIMP2 (Homo sapiens, UniProt P16035)
# T33 construct: endogenous in cells; host or cells: MDA-MB-231
# Method: as §1, §2
# [35] = molecular target: T34, FUBP3 (Homo sapiens, UniProt Q96I24)
# T34 construct: 148 targets unique to Compound 1 in MDA-MB-231 intact cells; endogenous in cells; host or cells: MDA-MB-231
# Method: as §1, §2
# [36] = molecular target: T35, NAPG (Homo sapiens, UniProt Q99747)
# T35 construct: endogenous in cells; host or cells: MDA-MB-231
# Method: as §1, §2
# T21 sequence (Q96T23 whole entry): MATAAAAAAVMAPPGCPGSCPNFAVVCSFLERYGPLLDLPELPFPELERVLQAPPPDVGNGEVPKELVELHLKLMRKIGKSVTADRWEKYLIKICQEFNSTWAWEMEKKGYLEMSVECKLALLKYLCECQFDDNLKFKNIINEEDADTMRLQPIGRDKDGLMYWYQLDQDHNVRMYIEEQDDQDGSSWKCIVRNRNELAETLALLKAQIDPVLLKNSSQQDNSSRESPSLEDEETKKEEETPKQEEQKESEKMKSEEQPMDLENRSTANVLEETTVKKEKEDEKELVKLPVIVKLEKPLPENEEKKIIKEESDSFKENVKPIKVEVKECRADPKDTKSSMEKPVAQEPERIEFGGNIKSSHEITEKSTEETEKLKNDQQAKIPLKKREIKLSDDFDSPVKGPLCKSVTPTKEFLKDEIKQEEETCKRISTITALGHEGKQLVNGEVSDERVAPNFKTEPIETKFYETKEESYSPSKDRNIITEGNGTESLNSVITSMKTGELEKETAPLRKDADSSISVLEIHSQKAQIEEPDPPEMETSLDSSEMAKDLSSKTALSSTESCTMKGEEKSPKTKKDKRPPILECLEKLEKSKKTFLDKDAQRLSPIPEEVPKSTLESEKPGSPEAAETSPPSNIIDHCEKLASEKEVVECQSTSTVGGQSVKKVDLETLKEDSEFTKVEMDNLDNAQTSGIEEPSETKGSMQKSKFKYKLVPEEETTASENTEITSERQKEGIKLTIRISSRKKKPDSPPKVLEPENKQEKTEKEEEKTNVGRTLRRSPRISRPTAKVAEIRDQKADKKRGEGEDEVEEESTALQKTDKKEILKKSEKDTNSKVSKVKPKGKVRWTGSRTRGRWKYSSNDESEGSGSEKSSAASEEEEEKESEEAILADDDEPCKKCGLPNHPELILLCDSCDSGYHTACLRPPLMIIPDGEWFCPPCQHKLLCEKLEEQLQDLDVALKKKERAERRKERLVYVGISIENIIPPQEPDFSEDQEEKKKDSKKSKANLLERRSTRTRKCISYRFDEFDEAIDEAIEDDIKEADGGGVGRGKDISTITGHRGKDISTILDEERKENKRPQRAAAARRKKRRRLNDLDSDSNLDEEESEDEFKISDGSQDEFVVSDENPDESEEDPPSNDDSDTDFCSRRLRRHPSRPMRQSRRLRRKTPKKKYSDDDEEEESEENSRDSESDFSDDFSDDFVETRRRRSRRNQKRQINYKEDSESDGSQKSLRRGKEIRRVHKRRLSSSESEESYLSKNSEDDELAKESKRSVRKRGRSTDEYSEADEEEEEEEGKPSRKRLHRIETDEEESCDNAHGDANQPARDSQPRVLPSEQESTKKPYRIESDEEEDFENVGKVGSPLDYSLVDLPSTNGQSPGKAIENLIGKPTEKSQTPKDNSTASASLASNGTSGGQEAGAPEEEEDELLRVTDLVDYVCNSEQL
# T35 sequence (Q99747 whole entry): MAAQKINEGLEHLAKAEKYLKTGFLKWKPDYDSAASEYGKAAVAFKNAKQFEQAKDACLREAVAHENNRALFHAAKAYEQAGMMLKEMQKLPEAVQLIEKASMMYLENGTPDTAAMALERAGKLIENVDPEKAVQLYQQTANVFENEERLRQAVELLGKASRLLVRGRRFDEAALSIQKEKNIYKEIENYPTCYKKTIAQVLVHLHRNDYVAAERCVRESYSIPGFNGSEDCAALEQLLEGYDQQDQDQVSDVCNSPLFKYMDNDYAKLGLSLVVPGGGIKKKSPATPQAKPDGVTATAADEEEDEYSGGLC
# T2 sequence (Q9H0K6 whole entry): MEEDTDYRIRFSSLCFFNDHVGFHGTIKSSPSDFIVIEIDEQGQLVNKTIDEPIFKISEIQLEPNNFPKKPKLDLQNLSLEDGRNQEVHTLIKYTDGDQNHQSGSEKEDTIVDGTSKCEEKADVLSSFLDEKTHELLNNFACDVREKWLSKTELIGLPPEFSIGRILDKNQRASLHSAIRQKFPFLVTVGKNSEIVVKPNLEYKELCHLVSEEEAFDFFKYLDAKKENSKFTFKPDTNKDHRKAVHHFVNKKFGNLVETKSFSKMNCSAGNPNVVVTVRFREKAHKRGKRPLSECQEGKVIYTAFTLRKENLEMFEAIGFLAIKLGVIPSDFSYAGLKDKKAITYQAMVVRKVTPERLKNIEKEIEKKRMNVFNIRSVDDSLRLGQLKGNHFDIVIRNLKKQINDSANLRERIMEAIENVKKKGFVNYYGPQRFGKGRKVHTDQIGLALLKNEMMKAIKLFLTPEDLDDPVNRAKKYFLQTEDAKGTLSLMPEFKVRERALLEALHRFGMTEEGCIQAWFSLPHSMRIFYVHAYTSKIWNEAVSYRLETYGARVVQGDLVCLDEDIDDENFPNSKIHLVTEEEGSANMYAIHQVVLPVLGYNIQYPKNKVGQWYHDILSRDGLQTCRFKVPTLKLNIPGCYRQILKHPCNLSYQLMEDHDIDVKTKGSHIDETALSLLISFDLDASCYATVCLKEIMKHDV
# T30 sequence (Q13190 whole entry): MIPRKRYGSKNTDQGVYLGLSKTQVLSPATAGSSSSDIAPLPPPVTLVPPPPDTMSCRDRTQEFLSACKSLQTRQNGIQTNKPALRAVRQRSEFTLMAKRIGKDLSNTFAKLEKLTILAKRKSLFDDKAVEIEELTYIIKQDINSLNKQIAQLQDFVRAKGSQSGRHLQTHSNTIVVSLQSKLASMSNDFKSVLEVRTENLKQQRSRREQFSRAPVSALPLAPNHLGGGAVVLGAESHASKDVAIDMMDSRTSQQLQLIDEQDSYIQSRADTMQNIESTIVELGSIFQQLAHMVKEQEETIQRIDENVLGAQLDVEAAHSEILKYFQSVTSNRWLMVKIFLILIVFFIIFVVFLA
# T34 sequence (Q96I24 whole entry): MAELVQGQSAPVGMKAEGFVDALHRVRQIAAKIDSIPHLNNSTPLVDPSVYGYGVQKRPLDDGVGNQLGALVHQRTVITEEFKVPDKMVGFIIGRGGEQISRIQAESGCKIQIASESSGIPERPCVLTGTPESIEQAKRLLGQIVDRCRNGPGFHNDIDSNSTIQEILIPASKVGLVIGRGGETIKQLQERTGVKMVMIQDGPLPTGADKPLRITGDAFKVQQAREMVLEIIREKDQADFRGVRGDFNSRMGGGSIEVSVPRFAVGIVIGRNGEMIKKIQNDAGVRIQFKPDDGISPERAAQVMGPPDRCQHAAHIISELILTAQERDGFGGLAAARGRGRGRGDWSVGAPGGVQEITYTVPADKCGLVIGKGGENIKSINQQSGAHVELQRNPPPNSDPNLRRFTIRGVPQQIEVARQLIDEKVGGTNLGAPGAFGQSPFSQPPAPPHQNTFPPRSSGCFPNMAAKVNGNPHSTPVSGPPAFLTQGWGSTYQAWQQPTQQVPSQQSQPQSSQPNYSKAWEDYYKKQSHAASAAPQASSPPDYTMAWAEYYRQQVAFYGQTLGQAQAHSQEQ
# T1 sequence (Q92688 whole entry): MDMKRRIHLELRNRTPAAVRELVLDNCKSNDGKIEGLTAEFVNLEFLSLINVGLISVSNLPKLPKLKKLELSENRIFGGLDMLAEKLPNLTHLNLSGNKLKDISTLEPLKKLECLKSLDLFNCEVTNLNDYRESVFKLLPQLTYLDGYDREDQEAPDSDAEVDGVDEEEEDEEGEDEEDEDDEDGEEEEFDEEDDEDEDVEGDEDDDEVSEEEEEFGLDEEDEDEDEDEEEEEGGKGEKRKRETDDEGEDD
# T17 sequence (Q9Y2Q5 whole entry): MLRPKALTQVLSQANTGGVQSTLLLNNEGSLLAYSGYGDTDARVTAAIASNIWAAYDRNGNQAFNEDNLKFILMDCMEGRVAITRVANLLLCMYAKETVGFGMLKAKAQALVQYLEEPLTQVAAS
# T26 sequence (Q16698 35-335): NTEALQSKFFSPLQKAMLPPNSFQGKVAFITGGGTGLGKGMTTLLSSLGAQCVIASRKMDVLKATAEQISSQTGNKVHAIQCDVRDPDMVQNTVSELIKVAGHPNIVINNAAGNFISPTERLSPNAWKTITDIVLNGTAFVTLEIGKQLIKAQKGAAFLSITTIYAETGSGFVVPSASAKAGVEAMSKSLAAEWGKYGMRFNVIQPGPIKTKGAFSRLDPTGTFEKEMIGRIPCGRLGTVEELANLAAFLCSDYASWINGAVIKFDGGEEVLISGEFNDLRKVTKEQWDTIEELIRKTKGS
# T11 sequence (Q9UNH7 whole entry): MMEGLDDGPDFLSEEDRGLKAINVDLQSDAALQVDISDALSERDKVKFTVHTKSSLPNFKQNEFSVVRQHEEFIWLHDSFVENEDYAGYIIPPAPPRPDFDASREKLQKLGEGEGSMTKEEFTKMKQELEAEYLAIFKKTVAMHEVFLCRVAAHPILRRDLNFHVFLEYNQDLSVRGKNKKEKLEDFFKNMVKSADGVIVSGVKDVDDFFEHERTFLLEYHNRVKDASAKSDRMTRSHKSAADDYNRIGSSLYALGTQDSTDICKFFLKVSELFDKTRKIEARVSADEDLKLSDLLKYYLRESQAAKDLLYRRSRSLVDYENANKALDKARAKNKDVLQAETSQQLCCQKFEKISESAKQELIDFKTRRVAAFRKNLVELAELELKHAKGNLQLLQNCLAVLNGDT
# T20 sequence (P38936 whole entry): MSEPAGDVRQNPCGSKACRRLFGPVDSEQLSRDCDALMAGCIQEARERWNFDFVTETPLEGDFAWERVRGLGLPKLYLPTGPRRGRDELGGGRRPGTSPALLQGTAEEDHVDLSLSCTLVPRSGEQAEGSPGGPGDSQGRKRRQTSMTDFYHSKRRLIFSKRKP
# T9 sequence (Q16270 27-282): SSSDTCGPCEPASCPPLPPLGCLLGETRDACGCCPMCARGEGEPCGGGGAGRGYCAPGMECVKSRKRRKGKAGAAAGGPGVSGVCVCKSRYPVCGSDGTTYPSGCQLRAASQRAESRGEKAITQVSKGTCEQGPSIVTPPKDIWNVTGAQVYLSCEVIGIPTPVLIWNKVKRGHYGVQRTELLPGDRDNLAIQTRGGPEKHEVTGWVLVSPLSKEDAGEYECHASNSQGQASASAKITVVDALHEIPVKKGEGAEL
smiles,measurement,setting,value
"CN1CCN(c2ccc(Nc3ncc4cc(C#N)c(=O)n(C5CCCC5)c4n3)cc2)CC1 [Compound 1, 8-cyclopentyl-2-((4-(4-methylpiperazin-1-yl)phenyl)amino)-7-oxo-7,8-dihydropyrido[2,3-d]pyrimidine-6-carbonitrile]",Group (CETSA-MS thermal shift),[1],Destabilization
same,Group (CETSA-MS thermal shift),[2],Destabilization
same,Group (CETSA-MS thermal shift),[3],Stabilization
same,Group (CETSA-MS thermal shift),[4],Stabilization
same,Group (CETSA-MS thermal shift),[5],Stabilization
same,Group (CETSA-MS thermal shift),[6],Destabilization
same,Group (CETSA-MS thermal shift),[7],Stabilization
same,Group (CETSA-MS thermal shift),[8],Stabilization
same,Group (CETSA-MS thermal shift),[9],Stabilization
same,Group (CETSA-MS thermal shift),[10],Destabilization
same,Group (CETSA-MS thermal shift),[11],Destabilization
same,Group (CETSA-MS thermal shift),[12],Stabilization
same,Group (CETSA-MS thermal shift),[13],Stabilization
same,Group (CETSA-MS thermal shift),[14],Destabilization
same,Group (CETSA-MS thermal shift),[15],Stabilization
same,Group (CETSA-MS thermal shift),[16],Stabilization
same,Group (CETSA-MS thermal shift),[17],Stabilization
same,Group (CETSA-MS thermal shift),[18],Stabilization
same,Group (CETSA-MS thermal shift),[19],Stabilization
same,Group (CETSA-MS thermal shift),[20],Destabilization
same,Group (CETSA-MS thermal shift),[21],Stabilization
same,Group (CETSA-MS thermal shift),[22],Stabilization
same,Group (CETSA-MS thermal shift),[23],Destabilization
same,Group (CETSA-MS thermal shift),[24],Destabilization
same,Group (CETSA-MS thermal shift),[25],Stabilization
same,Group (CETSA-MS thermal shift),[26],Stabilization
same,Group (CETSA-MS thermal shift),[27],Destabilization
same,Group (CETSA-MS thermal shift),[28],Stabilization
same,Group (CETSA-MS thermal shift),[29],Stabilization
same,Group (CETSA-MS thermal shift),[30],Destabilization
same,Group (CETSA-MS thermal shift),[31],Stabilization
same,Group (CETSA-MS thermal shift),[32],Stabilization
same,Group (CETSA-MS thermal shift),[33],Destabilization
same,Group (CETSA-MS thermal shift),[34],Stabilization
same,Group (CETSA-MS thermal shift),[35],Stabilization
same,Group (CETSA-MS thermal shift),[36],Stabilization
